# Measured values published in patent publication US20090012103A1, “SUBSTITUTED HETEROCYCLIC COMPOUNDS” (priority 2007, published 2009).
# Key:
# [1] = target: T1, wild-type human cardiac sodium channel, hNav1.5 (Homo sapiens, UniProt Q14524); experiment: Peak INa screening assay (tonic block TB and use-dependent block UDB of peak sodium current); format: cell-based; settings: compound at 10 μM
# Method: The late sodium current (Late INa) and peak sodium current (Peak INa) assays are performed on an automated electrophysiology platform, PatchXpress 7000A (MDS Analytical Technologies, Sunnyvale, Calif.), which uses the whole cell patch clamp technique to measure currents through the cell membrane of up to 16 cells at a time. The assay uses an HEK293 (human embryonic kidney) cell line heterologously expressing the wild-type human cardiac sodium channel, hNav1.5, purchased from Millipore (Billerica, Mass.). No beta subunits were coexpressed with the Na channel alpha subunit. […] Experiments are carried out at 24-27° C.
# For both the Late INa and Peak INa assays, series resistance compensation is set to 50% and whole-cell compensation is performed automatically. […] Currents through open sodium channels are automatically recorded and stored in the DataXpress2 database (MDS Analytical Technologies, Sunnyvale, Calif.). Analysis is performed using DataXpress2 analysis software and data are compiled in Excel.
# Compound stocks are routinely made in glass vials to 10 mM in dimethyl sulfoxide (DMSO). In some cases, when compounds are not soluble in DMSO, they are made in 100% ethanol. Stocks are sonicated as necessary. The extracellular solution for screening Late INa is composed of: 140 mM NaCl, 4 mM KCl, 1.8 mM CaCl2, 0.75 mM MgCl2, and 5 mM HEPES with pH adjusted to 7.4 using NaOH. The extracellular solution for screening Peak INa is composed of: 20 mM NaCl, 120 mM N-methyl-D glucamine, 4 mM KCl, 1.8 mM CaCl2, 0.75 mM MgCl2, and 5 mM HEPES with pH adjusted to 7.4 using HCl. The intracellular solution used to perfuse the inside of the cells for both the Late INa and Peak INa assays contains: 120 mM CsF, 20 mM CsCl, 5 mM EGTA, 5 mM HEPES and pH adjusted to 7.4 with CsOH. Compounds are diluted in extracellular solution to 10 μM in glass vials and then transferred to glass well plates before robotic addition to the cells. The 0 Na extracellular solution used at the end of each experiment for the Late INa and Peak INa assays to measure baseline current contains: 140 mM N-methyl-D-glucamine; 4 mM KCl; 1.8 mM CaCl2; 0.75 mM MgCl2; 5 mM HEPES and pH was adjusted to 7.4 with HCl.
# Compounds were also evaluated for their effect in several other assays, including their effect on Peak INa. In some cases, the effect on Peak INa was measured using data from the Late INa assay. […] Since the peak INa can be very large, introducing artifacts in the recording, the concentration of Na^+ in the bath is reduced to 20 mM and a nonpermeant cation is added to compensate for the Na^+ that was omitted from the standard extracellular solution (see above). The peak INa assay uses a holding potential of −100 mV and a 20 ms test pulse to 0 mV to activate the channel. As in the Late INa assay, stepping the voltage to 0 mV causes a rapid increase in negative Na current through hNav1.5 that inactivates within a few ms. No late INa activator is added for the peak assay.
# For the separate peak INa assay, both tonic (TB) block and use-dependent (UDB) block of peak inward sodium current by 10 μM compound are determined. TB is block of the channel in the resting state, before the channel opens. TB is simulated in this assay by stimulating the channel to open at a low frequency (0.1 Hz). This is done in order to measure the control current amplitude and monitor current rundown, enabling correction for rundown in the calculation of percent block for TB.
# [2] = target: T1, wild-type human cardiac sodium channel, hNav1.5; experiment: Late INa screening assay (late sodium current, PatchXpress whole cell patch clamp); format: cell-based; settings: compound at 10 μM; read-out: Late INa % blk
# [3] = tonic block, read-out: Tonic Peak INa % blk
# [4] = use-dependent block, read-out: UDB Peak INa % blk
# T1 sequence (Q14524 whole entry): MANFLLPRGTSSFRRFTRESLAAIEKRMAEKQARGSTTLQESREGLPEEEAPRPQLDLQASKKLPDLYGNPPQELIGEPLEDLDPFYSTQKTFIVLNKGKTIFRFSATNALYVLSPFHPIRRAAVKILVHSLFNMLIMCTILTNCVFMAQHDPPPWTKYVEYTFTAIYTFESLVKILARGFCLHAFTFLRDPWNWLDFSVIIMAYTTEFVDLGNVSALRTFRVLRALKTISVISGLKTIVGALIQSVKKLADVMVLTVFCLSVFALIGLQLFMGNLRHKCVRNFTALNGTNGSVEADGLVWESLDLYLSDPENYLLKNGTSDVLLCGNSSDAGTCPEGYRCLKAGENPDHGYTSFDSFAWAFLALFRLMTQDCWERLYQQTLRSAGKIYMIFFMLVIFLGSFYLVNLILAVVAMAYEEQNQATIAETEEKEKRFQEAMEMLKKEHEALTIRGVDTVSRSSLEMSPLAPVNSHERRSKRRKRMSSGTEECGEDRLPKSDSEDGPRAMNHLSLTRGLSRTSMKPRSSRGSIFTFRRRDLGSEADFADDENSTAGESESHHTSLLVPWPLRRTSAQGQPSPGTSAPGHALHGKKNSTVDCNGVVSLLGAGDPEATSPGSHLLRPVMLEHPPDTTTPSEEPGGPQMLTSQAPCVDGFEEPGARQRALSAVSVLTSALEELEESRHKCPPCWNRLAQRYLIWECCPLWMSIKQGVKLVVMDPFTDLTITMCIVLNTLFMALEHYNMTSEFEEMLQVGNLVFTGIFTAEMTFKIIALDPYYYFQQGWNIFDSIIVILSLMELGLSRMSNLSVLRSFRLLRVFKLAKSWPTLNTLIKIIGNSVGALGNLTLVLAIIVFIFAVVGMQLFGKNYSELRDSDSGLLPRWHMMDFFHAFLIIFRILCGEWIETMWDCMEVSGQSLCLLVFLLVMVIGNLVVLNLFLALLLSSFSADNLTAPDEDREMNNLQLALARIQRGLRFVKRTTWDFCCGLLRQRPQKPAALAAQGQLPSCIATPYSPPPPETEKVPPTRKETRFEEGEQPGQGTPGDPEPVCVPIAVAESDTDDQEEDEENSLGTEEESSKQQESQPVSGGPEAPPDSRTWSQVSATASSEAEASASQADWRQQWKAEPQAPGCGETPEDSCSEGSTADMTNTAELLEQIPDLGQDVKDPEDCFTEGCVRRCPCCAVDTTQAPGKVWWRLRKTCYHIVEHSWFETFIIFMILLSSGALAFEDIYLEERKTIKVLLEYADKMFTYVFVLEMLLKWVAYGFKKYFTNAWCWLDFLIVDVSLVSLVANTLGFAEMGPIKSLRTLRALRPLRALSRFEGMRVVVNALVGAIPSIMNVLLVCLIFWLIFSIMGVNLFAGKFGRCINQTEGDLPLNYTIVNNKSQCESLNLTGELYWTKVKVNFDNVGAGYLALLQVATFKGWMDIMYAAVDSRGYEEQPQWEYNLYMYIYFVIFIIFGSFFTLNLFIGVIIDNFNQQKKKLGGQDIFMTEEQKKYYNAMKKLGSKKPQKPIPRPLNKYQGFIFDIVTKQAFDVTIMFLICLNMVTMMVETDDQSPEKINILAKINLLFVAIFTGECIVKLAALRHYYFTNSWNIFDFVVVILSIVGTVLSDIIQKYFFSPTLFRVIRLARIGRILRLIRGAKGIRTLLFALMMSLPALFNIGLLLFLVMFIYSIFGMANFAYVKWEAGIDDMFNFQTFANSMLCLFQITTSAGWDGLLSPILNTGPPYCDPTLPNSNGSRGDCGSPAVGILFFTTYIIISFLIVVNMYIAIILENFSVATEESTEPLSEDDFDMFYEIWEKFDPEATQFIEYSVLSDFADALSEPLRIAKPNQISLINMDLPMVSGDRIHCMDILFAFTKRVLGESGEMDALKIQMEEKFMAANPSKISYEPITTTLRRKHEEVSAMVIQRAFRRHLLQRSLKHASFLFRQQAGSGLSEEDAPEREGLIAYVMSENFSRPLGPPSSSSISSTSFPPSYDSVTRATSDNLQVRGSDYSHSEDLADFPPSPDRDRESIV
structure (smiles),measurement,setting,value
"CC1=C(C(=O)OCc2ccccc2)C(c2ccccc2OCCN(C)C)n2nnnc2N1 (stereo not shown) [PT-374, benzyl 7-(2-(2-(dimethylamino)ethoxy)phenyl)-5-methyl-4,7-dihydrotetrazolo[1,5-a]pyrimidine-6-carboxylate]",inhibition at 10 µM,[1]; [3],38.7%
same,inhibition at 10 µM,[2],66.3%
"CCOC(=O)C1=C(C)NC2=C(C(=O)CCC2)C1c1ccc(C)c2ccccc12 (stereo not shown) [PT-135, ethyl 2-methyl-4-(4-methylnaphthalen-1-yl)-5-oxo-1,4,5,6,7,8-hexahydroquinoline-3-carboxylate]",inhibition at 10 µM,[1]; [3],9.6%
same,inhibition at 10 µM,[2],59.9%
"CCOC(=O)C1=C(C)Nc2nnnn2C1c1cccc(OCc2ccc(C(=O)OCC)cc2)c1 (stereo not shown) [PT-497, ethyl 7-(3-(4-(ethoxycarbonyl)benzyloxy)phenyl)-5-methyl-4,7-dihydrotetrazolo[1,5-a]pyrimidine-6-carboxylate]",inhibition at 10 µM,[1]; [3],22.2%
same,inhibition at 10 µM,[1]; [4],15.4%
same,inhibition at 10 µM,[2],59%
"COc1ccccc1COC(=O)C1=C(C)Nc2nnnn2C1c1c(C)cccc1C (stereo not shown) [PT-262, 2-methoxybenzyl 7-(2,6-dimethylphenyl)-5-methyl-4,7-dihydrotetrazolo[1,5-a]pyrimidine-6-carboxylate]",inhibition at 10 µM,[1]; [3],15.1%
same,inhibition at 10 µM,[1]; [4],6.9%
same,inhibition at 10 µM,[2],70%
"CCOC(=O)[C@@H]1CCCN(c2cc(OC)ccc2C2C(C(=O)OCc3ccccc3)=C(C)Nc3[nH]ncc32)C1 (stereo partly drawn) [PT-327, benzyl 4-(2-((R)-3-(ethoxycarbonyl)piperidin-1-yl)-4-methoxyphenyl)-6-methyl-4,7-dihydro-1H-pyrazolo[3,4-b]pyridine-5-carboxylate]",inhibition at 10 µM,[1]; [3],18.5%
same,inhibition at 10 µM,[1]; [4],9.4%
same,inhibition at 10 µM,[2],35.3%
"COC(=O)C1=C(C)Nc2nnnn2C1c1c(Br)sc2ccccc12 (stereo not shown) [PT-518, methyl 7-(2-bromobenzo[b]thiophen-3-yl)-5-methyl-4,7-dihydrotetrazolo[1,5-a]pyrimidine-6-carboxylate]",inhibition at 10 µM,[1]; [3],24%
same,inhibition at 10 µM,[2],71.2%
"COc1ccc(-c2sc3ccccc3c2C2C(C(=O)OCc3ccccc3)=C(C)Nc3nnnn32)cc1 (stereo not shown) [PT-379, benzyl 7-(2-(4-methoxyphenyl)benzo[b]thiophen-3-yl)-5-methyl-4,7-dihydrotetrazolo[1,5-a]pyrimidine-6-carboxylate]",inhibition at 10 µM,[1]; [3],11.1%
same,inhibition at 10 µM,[1]; [4],9.8%
same,inhibition at 10 µM,[2],55%
"CCOC(=O)C1=C(C)Nc2nnnn2C1c1c(Br)sc2ccccc12 (stereo not shown) [PT-489, ethyl 7-(2-bromobenzo[b]thiophen-3-yl)-5-methyl-4,7-dihydrotetrazolo[1,5-a]pyrimidine-6-carboxylate]",inhibition at 10 µM,[1]; [3],46.2%
same,inhibition at 10 µM,[1]; [4],29.2%
same,inhibition at 10 µM,[2],80.7%
"CCOC(=O)[C@@H]1CCCN(c2cc(OC)ccc2C2C(C(=O)OCc3ccccc3)=C(C)Nc3nnnn32)C1 (stereo partly drawn) [PT-373, benzyl 7-(2-((R)-3-(ethoxycarbonyl)piperidin-1-yl)-4-methoxyphenyl)-5-methyl-4,7-dihydrotetrazolo[1,5-a]pyrimidine-6-carboxylate]",inhibition at 10 µM,[1]; [3],22.5%
same,inhibition at 10 µM,[2],64.9%
"CC1=C(C(=O)OC(C)C)C(c2c[nH]nc2-c2cccs2)C2=C(CC(C)(C)CC2=O)N1 (stereo not shown) [PT-162, isopropyl 2,7,7-trimethyl-5-oxo-4-(3-(thiophen-2-yl)-1H-pyrazol-4-yl)-1,4,5,6,7,8-hexahydroquinoline-3-carboxylate]",inhibition at 10 µM,[1]; [3],1.1%
same,inhibition at 10 µM,[2],-0.2%
"COc1cc([N+](=O)[O-])ccc1C1C(C(=O)OCc2ccccc2)=C(C)Nc2ccnn21 (stereo not shown) [PT-394, benzyl 7-(2-methoxy-4-nitrophenyl)-5-methyl-4,7-dihydropyrazolo[1,5-a]pyrimidine-6-carboxylate]",inhibition at 10 µM,[1]; [3],15.4%
same,inhibition at 10 µM,[1]; [4],8%
same,inhibition at 10 µM,[2],45.2%
"CC1=C(C(=O)OCc2ccccc2)C(c2occc2-c2ccccc2)n2nnnc2N1 (stereo not shown) [PT-351, benzyl 5-methyl-7-(3-phenylfuran-2-yl)-4,7-dihydrotetrazolo[1,5-a]pyrimidine-6-carboxylate]",inhibition at 10 µM,[1]; [3],49.9%
same,inhibition at 10 µM,[2],81.6%
"CC1=C(C(=O)OCc2ccccc2)C(c2sccc2Br)n2nnnc2N1 (stereo not shown) [PT-401, benzyl 7-(3-bromothiophen-2-yl)-5-methyl-4,7-dihydrotetrazolo[1,5-a]pyrimidine-6-carboxylate]",inhibition at 10 µM,[1]; [3],25.9%
same,inhibition at 10 µM,[2],77.3%
"CCOC(=O)C1=C(C)NC(C)=C(C(=O)OCC)C1c1ccccc1-c1ccc(NS(C)(=O)=O)cc1 [PT-428, diethyl 2,6-dimethyl-4-(4′-(methylsulfonamido)biphenyl-2-yl)-1,4-dihydropyridine-3,5-dicarboxylate]",inhibition at 10 µM,[1]; [3],5.3%
same,inhibition at 10 µM,[1]; [4],1%
same,inhibition at 10 µM,[2],45.1%
"CCOC(=O)C1=C(C)Nc2nnnn2C1c1sccc1-c1cccc(F)c1 (stereo not shown) [PT-496, ethyl 7-(3-(3-fluorophenyl)thiophen-2-yl)-5-methyl-4,7-dihydrotetrazolo[1,5-a]pyrimidine-6-carboxylate]",inhibition at 10 µM,[1]; [3],36.8%
same,inhibition at 10 µM,[1]; [4],9.1%
same,inhibition at 10 µM,[2],84.2%
"CC1=C(C(=O)OCC(F)(F)F)C(c2cccc3ccccc23)n2nnnc2N1 (stereo not shown) [PT-014, 2,2,2-trifluoroethyl 5-methyl-7-(naphthalen-1-yl)-4,7-dihydrotetrazolo[1,5-a]pyrimidine-6-carboxylate]",inhibition at 10 µM,[1]; [3],9%
same,inhibition at 10 µM,[2],50.9%
"CC1=C(C(=O)OCc2ccccc2)C(c2ccc3ccccc3c2)C2=C(CCCC2=O)N1 (stereo not shown) [PT-320, benzyl 2-methyl-4-(naphthalen-2-yl)-5-oxo-1,4,5,6,7,8-hexahydroquinoline-3-carboxylate]",inhibition at 10 µM,[1]; [3],16.7%
same,inhibition at 10 µM,[1]; [4],26.5%
same,inhibition at 10 µM,[2],51%
"CC1=C(C(=O)O[C@@H](C)c2ccccc2)C(c2c3ccccc3cc3ccccc23)n2nnnc2N1 (stereo partly drawn) [PT-055, (S)-1-phenylethyl 7-(anthracen-9-yl)-5-methyl-4,7-dihydrotetrazolo[1,5-a]pyrimidine-6-carboxylate]",inhibition at 10 µM,[1]; [3],7.6%
same,inhibition at 10 µM,[2],56.3%
"CC1=C(C(=O)OCC2CC2)C(c2c(Br)sc3ccccc23)n2nnnc2N1 (stereo not shown) [PT-426, cyclopropylmethyl 7-(2-bromobenzo[b]thiophen-3-yl)-5-methyl-4,7-dihydrotetrazolo[1,5-a]pyrimidine-6-carboxylate]",inhibition at 10 µM,[1]; [3],60.1%
same,inhibition at 10 µM,[1]; [4],50.7%
same,inhibition at 10 µM,[2],81%
"CC1=C(C(=O)OCc2ccccc2)C(c2sccc2-c2ccccc2)n2nnnc2N1 (stereo not shown) [PT-352, benzyl 5-methyl-7-(3-phenylthiophen-2-yl)-4,7-dihydrotetrazolo[1,5-a]pyrimidine-6-carboxylate]",inhibition at 10 µM,[1]; [3],17.7%
same,inhibition at 10 µM,[2],76.3%
"CCOC(=O)C1=C(C)Nc2nnnn2C1c1ccccc1I (stereo not shown) [PT-492, ethyl 7-(2-iodophenyl)-5-methyl-4,7-dihydrotetrazolo[1,5-a]pyrimidine-6-carboxylate]",inhibition at 10 µM,[1]; [3],0.3%
same,inhibition at 10 µM,[2],39.3%
"CC1=C(C(=O)OC(c2ccc(F)cc2)c2ccc(F)cc2)C(c2cccs2)n2nnnc2N1 (stereo not shown) [PT-423, bis(4-fluorophenyl)methyl 5-methyl-7-(thiophen-2-yl)-4,7-dihydrotetrazolo[1,5-a]pyrimidine-6-carboxylate]",inhibition at 10 µM,[1]; [3],18.5%
same,inhibition at 10 µM,[1]; [4],20.4%
same,inhibition at 10 µM,[2],67.2%
"CC1=C(c2nnc(Cc3ccccc3)o2)C(c2cccc3ccccc23)C2=C(CCCC2=O)N1 (stereo not shown) [PT-276, 3-(5-benzyl-1,3,4-oxadiazol-2-yl)-2-methyl-4-(naphthalen-1-yl)-4,6,7,8-tetrahydroquinolin-5(1H)-one]",inhibition at 10 µM,[1]; [3],31.3%
same,inhibition at 10 µM,[1]; [4],13%
same,inhibition at 10 µM,[2],49.7%
